Reference: patent US20090299063A1, “Inhibitors for Extracellular Signal-Regulated Kinase Docking Domains and Uses Therefor” (priority 2005, published 2009)
pIC50: −log10 of the molar value. “Also recorded” adds a separate entry of the source.

Experiments:
[1] = tested on: ERK-mediated phosphorylation of Rsk-1 on Thr573; assay: ERK-mediated Rsk-1 phosphorylation, immunoblot of EGF-stimulated HeLa cells; type: cell-based, human
HeLa cells = assay: Colony formation assay, HeLa cells; type: cell-based, human; conditions: FIG. 8A, 10 cm plates, 100 mM (printed) compound
Experimental: (§1) HeLa, A549, or SUM-159 cells were plated at a low density of 200-400 cells per well in the absence or presence of putative ERK docking domain inhibitors. Cell colonies were stained with crystal violet and counted after 6-10 days. In FIG. 8A cells were grown on 10 cm plates in the absence (−) or presence of […] of compound 67, 36, 68, 81, or 76. Colony formation dose response in the presence of the indicated concentrations of compound 76 (closed squares) or 81 (open squares) for Hela cells ([…]) (FIG. 8B), A549 cells (50 mM) (FIG. 8C), or SUM-159 cells (50 mM) (FIG. 8D).
(§2) Two methods were used to determine cell proliferation and survival based on colony formation. First, HeLa cells were grown to 70-80% confluence and then treated for 16 hours in the absence (DMSO only) or presence of active compounds. The next day cells were trypsinized, replated (1000-2000 cells per 10 cm culture dish) in regular media and allowed to grow for 8-14 days. Cells then were fixed for 10 minutes in 4% paraformaldehyde and stained with 0.2% crystal violet (in 20% methanol) for 1-2 minutes. Cells were washed several times with distilled water and colonies formed of at least 40 cells were counted. In the second method, growing cells were trypsinized and replated (500-1000 cells per 35 or 60 mm well, respectively) in the presence or absence of various concentrations of the test compounds. Following incubation for 8-14 days, cells were fixed, stained with crystal violet, and counted as described above.
The effects of the active compounds on cell proliferation and survival were tested using a colony formation assay.
(§3) Thus, several test compounds that show maximal inhibition of ERK substrates are also effective inhibitors of proliferation in cultured cancer cell lines.

[2] = tested on: HT1080 fibrosarcoma cells; assay: Cell proliferation, HT1080 cells; type: cell-based, human; conditions: HT1080, data not shown
Experimental: as §2, §3

ERK2 = biological target: T1, ERK2 (Mus musculus, UniProt P63085); assay: ERK2 fluorescence titration (quenching of intrinsic fluorescence); type: binding; conditions: for quenching of ERK2 fluorescence (in words): wild type ERK2, excitation 295 nm
T1 construct: (His)6; made in house; host or cells: bacteria
T1 sequence (P63085 whole entry): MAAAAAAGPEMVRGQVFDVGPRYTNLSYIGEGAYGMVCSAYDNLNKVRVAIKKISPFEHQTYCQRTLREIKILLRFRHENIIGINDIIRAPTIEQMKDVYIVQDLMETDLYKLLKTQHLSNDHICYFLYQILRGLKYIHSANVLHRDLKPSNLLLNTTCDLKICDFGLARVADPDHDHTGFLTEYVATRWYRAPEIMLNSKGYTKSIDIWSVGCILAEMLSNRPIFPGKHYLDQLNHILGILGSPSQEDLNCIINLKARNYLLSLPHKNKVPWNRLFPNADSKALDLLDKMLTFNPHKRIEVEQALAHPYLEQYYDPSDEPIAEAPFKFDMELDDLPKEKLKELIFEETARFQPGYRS
Excerpt: ERK2 was purified as described previously (46) with some modifications. Briefly, (His)6-tagged ERK2 was expressed in bacteria and the cells were harvested in BugBuster protein extraction reagent (EMD Biosciences, San Diego, Calif.). Clarified lysates were loaded onto a Talon Co^2+-IMAC affinity chromatography resin column (BD Biosciences, San Jose, Calif.) and the bound protein was eluted using increasing concentrations of imidazole. SDS-PAGE electrophoresis and Coomassie blue staining were used to identify the eluted fractions containing the ERK2 protein. The ERK2 protein concentration was determined using Bradford Reagent (Sigma).
Experiments will measure the changes in the intrinsic ERK2 fluorescence due to the presence of aromatic amino acids, with the indole group of tryptophan being the major fluorophore with absorption and emission maxima around 280 and 340 nanometers (nm), respectively. Fluorescence spectra were recorded with a Luminescence Spectrometer LS50 (Perkin Elmer, Boston, Mass.). For all experiments, ERK2 protein was diluted into 20 mM Tris-HCl, pH 7.5. Titrations were performed by increasing the test compound concentration while maintaining the ERK2 protein concentration at […]. […] The excitation wavelength was 295 nm and fluorescence was monitored from 300 to 500 nm. All reported fluorescence intensities are relative values and are not corrected for wavelength variations in detector response. Dissociation constants, KD, were determined using reciprocal plots, 1/v vs 1/[I], where v represents the percent occupied sites calculated assuming fluorescence quenching to be directly proportion to the percentage of occupied binding sites, [1] represents the concentration of the inhibitor compound and the slope of the curve equals the KD (48-49).
ERK2 contains three tryptophans, which have intrinsic fluorescence.

[3] = tested on: SUM-159 estrogen-receptor negative breast cancer cell line; assay: Colony formation assay, SUM-159 cells; type: cell-based, human; conditions: SUM-159, FIG. 8D
Experimental: as §1
as §2, with “In the second method, growing cells were trypsinized and replated (500-1000 cells per 35 or 60 mm well, respectively) in the presence or absence of various concentrations of the test compounds.” left out, “above. […]” for “above.”

[4] = tested on: dually phosphorylated ERK1/2 (ppERK1/2); assay: ERK1/2 phosphorylation on activating sites (ppERK1/2), immunoblot of EGF-stimulated HeLa cells; type: cell-based, human
Experimental: (§4) In FIGS. 4A-4B HeLa cells were treated with EGF for 5 minutes with or without 100 mM of test compounds. […] The far left lane is the control (−) with no EGF. […] The control (C) is EGF only treatment. In FIG. 4B cells pretreated with increasing concentrations of compound 76 were stimulated with EGF. ELK-1 phosphorylation on Ser383 (pELK-1) was measured by immunoblotting. […] Protein lysates were separated by SDS-PAGE and immunoblotted simultaneously for phosphorylated ELK-1 (pELK-1, Ser383), dually phosphorylated ERK1/2 (ppERK1/2), and a-tubulin as a protein loading control. […] The control (C) is EGF only treatment.
(§5) The lysates then were diluted with an equal volume of 2× SDS-sample buffer and the proteins were separated on SDS-PAGE for immunoblot analysis. Immunoblot analysis was done as previously described (41-43).

[5] = tested on: ERK-specific phosphorylation of Elk-1 on Ser383; assay: ERK-mediated Elk-1 phosphorylation, immunoblot of EGF-stimulated HeLa cells; type: cell-based, human
Experimental: as §4, with “FIGS.” for “FIGS. 4A-4B HeLa cells were treated with EGF for 5 minutes with or without 100 mM of test compounds.”
as §5
Compounds that were identified using the 3D structure of phosphorylated ERK2 also were tested.

colony formation = assay: Colony formation assay of compounds 86-98 (cell line not given); type: cell-based; conditions: Table 3
Experimental: Cell colonies were stained with crystal violet and counted after 6-10 days.
Cells then were fixed for 10 minutes in 4% paraformaldehyde and stained with 0.2% crystal violet (in 20% methanol) for 1-2 minutes.

[6] = increasing doses of compound, EGF stimulation
[7] = 75 mM (printed) test compound 30 minutes, EGF 5 minutes

y-intercept of reciprocal plot (indicating a single binding site) (ERK2; wild type ERK2)	pIC50 (colony formation)	SMILES	effect on ERK-mediated Rsk-1 phosphorylation (in words) [1]	effect on colony formation / cell proliferation (in words) (HeLa cells)	inhibition of cell proliferation (in words) [2]	quenching of ERK2 fluorescence (in words) (ERK2)	inhibition of cell proliferation (in words) [3]	effect on ERK1/2 phosphorylation on its activating sites [4, 6]	effect on ERK-mediated Elk-1 phosphorylation (Ser383) [5, 6]	effect on ERK1/2 phosphorylation (ppERK1/2) [4, 7]	effect on EGF-mediated ELK-1 phosphorylation (Ser383) [5, 7]
		N=C(N)Nc1nc(C2COc3ccccc3O2)cs1 (stereo not drawn) [Compound 36]	little effect on ERK substrate phosphorylation; also recorded: little effect on ERK-mediated Rsk-1 phosphorylation	subtle inhibition of colony formation; also recorded: little effect on colony formation							
		O=C(CCN1CCN(C/C=C/c2ccccc2)CC1)Nc1ccc(Cl)cc1 [Compound 81]		completely inhibited cell proliferation	inhibition of cell proliferation	quenching only occurs to a small extent at the higher concentrations	inhibition of cell proliferation				
1.8		CCOc1ccc(C=C2SC(=O)N(CCN)C2=O)cc1 [Compound 76]	highest inhibition of Rsk-1 phosphorylation	completely inhibited cell proliferation	inhibition of cell proliferation	strong quenching of fluorescence	inhibition of cell proliferation	largely unaffected	inhibited ERK-mediated Elk-1 phosphorylation		
	< 4.00	COc1cc(C=C2NC(=O)NC2=O)ccc1OCc1ccc(Br)cc1 [Compound 95]				quenched ERK2 fluorescence; also recorded: more effective in quenching				little effect on ERK1/2 phosphorylation	showed evidence for inhibiting ERK-mediated ELK-1 phosphorylation; also recorded: inhibited EGF-mediated ELK-1 phosphorylation
